Experimental data as given in patent US20150176079A1, “MARKERS FOR CANCER” (OSLO UNIVERSITETSSYKEHUS HF, priority 2007, published 2015).

Tests used:
Assay type in all cases: cell-based
[1] = system: CNRIP1 mRNA expression in colon cancer cell lines; test: Quantitative gene expression of CNRIP1 in colon cancer cell lines before and after epigenetic drug treatment; conditions: for increase in relative expression of CNRIP1, the two doses compared: low dose 1 uM versus high dose 10 uM, 72 h, six colon cancer cell lines; for relative expression of CNRIP1 (fold change, untreated sample as calibrator): six colon cancer cell lines HT29, SW48, HCT15, SW480, RKO, LS1034, AZA 1 or 10 uM 72 h, TSA 0.5 μM 12 h, combination 1 μM AZA 72 h + 0.5 μM TSA last 12 h
Method: (§1) Gene expression was measured in 6 colon cancer cell lines before and after treatment with epigenetic drugs. The relative expression levels of SPG20, INA and CNRIP1 in the colon cancer cell lines (n=6) was measured. […] The mean expression of ACTB and GUSB was used as endogenous control. TaqMan real-time fluorescence detection (Applied Biosystems, Foster city, CA) was used to quantify mRNA levels in the colon cancer cell lines, as previously described [Gibson et al. and Heid et al.]. cDNA was generated from five μg total RNA using a High-Capacity cDNA Archive kit (Applied Biosystems), including random primers according to the manufacturers' protocol. cDNA from the genes of interest (SPG20, INA and CNRIP1) and the endogenous controls (ACTB and GUSB) were amplified separately by the 7900HT Sequence Detection System (Applied Biosystems) following the protocol recommended by supplier. All samples were analyzed in triplicates. The expression levels were calculated as fold changes using the […] method and the untreated sample as a calibrator. In order to adjust for the possibly variable amounts of cDNA input in each PCR, we normalized the expression quantity of the target genes with the housekeeping genes ACTB and GUSB. Six colon cancer cell lines, HCT15, HT29, SW48, SW480, RKO and LS1034 were subjected to treatment with the demethylating drug 5-aza-2'deoxycytidine (1 μM for 72 h and 10 uM for 72 h), the histone deacetylase inhibitor trichostatin A (0.5 μM for 12 h) and a combination of both (1 μM 5-aza-2'deoxycytidine for 72 h, 0.5 μM trichostatin A added the last 12 h).

[2] = system: INA mRNA expression in colon cancer cell lines; test: Quantitative gene expression of INA in colon cancer cell lines before and after epigenetic drug treatment; conditions: for increase in relative expression of INA, the two doses compared: low dose 1 uM versus high dose 10 uM, 72 h, six colon cancer cell lines; for relative expression of INA (fold change, untreated sample as calibrator): six colon cancer cell lines HT29, SW48, HCT15, SW480, RKO, LS1034, AZA 1 or 10 uM 72 h, TSA 0.5 μM 12 h, combination 1 μM AZA 72 h + 0.5 μM TSA last 12 h
Method: as §1

[3] = system: SPG20 mRNA expression in colon cancer cell lines; test: Quantitative gene expression of SPG20 in colon cancer cell lines before and after epigenetic drug treatment; conditions: for increase in relative expression of SPG20, the two doses compared: low dose 1 uM versus high dose 10 uM, 72 h, six colon cancer cell lines; for relative expression of SPG20 (fold change, untreated sample as calibrator): six colon cancer cell lines HT29, SW48, HCT15, SW480, RKO, LS1034, AZA 1 or 10 uM 72 h, TSA 0.5 μM 12 h, combination 1 μM AZA 72 h + 0.5 μM TSA last 12 h
Method: as §1

[4] = system: MAL mRNA expression in colon cancer cell lines; test: Real-time quantitative gene expression of MAL in colon cancer cell lines after drug treatment
Method: Six colon cancer cell lines, HCT15, HT29, SW48, SW480, RKO and LS1034 were subjected to treatment with the demethylating drug 5-aza-2′deoxycytidine (1 μM for 72 h and 10 uM for 72 h), the histone deacetylase inhibitor trichostatin A (0.5 μM for 12 h) and a combination of both (1 μM 5-aza-2′deoxycytidine for 72 h, 0.5 μM trichostatin A added the last 12 h). Total RNA was extracted from cell lines (n=46), tumours (n=16), and normal tissue (n=3) using Trizol (Invitrogen, Carlsbad, Calif., USA) and the RNA concentration was determined using ND-1000 Nanodrop (NanoDrop Technologies, Wilmington, Del., USA). For each sample, total RNA was converted to cDNA using a High-Capacity cDNA Archive kit (Applied Biosystems), including random primers. MAL (Hs00242749_m1 and Hs00360838_m1) and the endogenous controls ACTB (Hs99999903_m1) and GUSB (Hs99999908_m1) were amplified separately in 96 well fast plates following the recommended protocol (Applied Biosystems), and the real time quantitative gene expression was measured by the 7900HT Sequence Detection System (Applied Biosystems). All samples were analyzed in triplicate, and the median value was used for data analysis. The human universal reference RNA (containing a mixture of RNA from ten different cell lines; Stratagene) was used to generate a standard curve, and the resulting quantitative expression levels of MAL were normalized against the mean value of the two endogenous controls.

[5] = system: MAL promoter methylation in colon cancer cell lines; test: Methylation-specific PCR (MSP) of the MAL promoter in colon cancer cell lines after drug treatment; conditions: colon cancer cell lines HT29 and HCT15 (FIG. 9)
Method: Six colon cancer cell lines, HCT15, HT29, SW48, SW480, RKO and LS1034 were subjected to treatment with the demethylating drug 5-aza-2′deoxycytidine (1 μM for 72 h and 10 uM for 72 h), the histone deacetylase inhibitor trichostatin A (0.5 μM for 12 h) and a combination of both (1 μM 5-aza-2′deoxycytidine for 72 h, 0.5 μM trichostatin A added the last 12 h). DNA from primary tumours and normal mucosa samples was bisulphite treated as previously described. DNA from colon cancer cell lines was bisulphite treated using the EpiTect bisulphite kit (Qiagen Inc., Valencia, Calif., USA). The promoter methylation status of all genes was analyzed by methylation-specific polymerase chain reaction (MSP) using the HotStarTaq DNA polymerase (Qiagen). All results were confirmed with a second independent round of MSP. Human placental DNA (Sigma Chemical Co, St. Louis, Mo., USA) treated in vitro with SssI methyltransferase (New England Biolabs Inc., Beverly, Mass., USA) was used as a positive control for the methylated MSP reaction, whereas DNA from normal lymphocytes was used as a positive control for unmethylated alleles. Water was used as a negative control in both reactions.

[6] = listed as 5-aza-2′deoxycytidine
[7] = colon cancer cell lines HT29 and HCT15 (FIG. 9)

SMILES | increase in relative expression of CNRIP1, the two doses compared [1] | increase in relative expression of CNRIP1, the two doses compared [1, 6] | relative expression of CNRIP1 (fold change, untreated sample as calibrator) [1] | increase in relative expression of INA, the two doses compared [2] | increase in relative expression of INA, the two doses compared [2, 6] | relative expression of INA (fold change, untreated sample as calibrator) [2] | increase in relative expression of SPG20, the two doses compared [3] | increase in relative expression of SPG20, the two doses compared [3, 6] | relative expression of SPG20 (fold change, untreated sample as calibrator) [3] | MAL mRNA expression ([4]; HCT15 cells) | MAL mRNA expression ([4]; HT29 cells) | MAL mRNA expression [4, 7] | promoter methylation of MAL (MSP) [5]
Nc1ncn([C@H]2C[C@H](O)[C@@H](CO)O2)c(=O)n1 [5-aza-2′-deoxycytidine] | comparable effects | comparable increases | Up-regulated mRNA expression | comparable effects | comparable increases | Up-regulated mRNA expression | comparable effects | comparable increases | Up-regulated mRNA expression | more moderate levels | high expression | up-regulated mRNA expression | Decreased promoter methylation
CC(/C=C/C(=O)NO)=C\[C@@H](C)C(=O)c1ccc(N(C)C)cc1 [trichostatin A] |  |  | did not increase the gene expression |  |  | did not increase the gene expression |  |  | did not increase the gene expression |  |  | did not increase MAL expression | 
